Assay results: the supplement of paper PMC3974653
Structures can show the parent of a compound that is named as a salt.

What follows are compounds tested on MTT (mouse pheochromocytoma) (assay: IC50 of cell viability (ATP content)). Details: (24 or 48 h).
How it was run: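 After overnight culture at 37°C, 5% CO2 in white 1536-well plates, MTT mouse pheochromocytoma cells were given 23 nl of library compound in DMSO by pintool across 8 concentrations, spanning final 0.5 nM to 46 µM. Following 24 or 48 hrs, CellTiter-Glo luminescence was read after 15 minutes and normalised against positive-control (100%) and DMSO (0%) wells. A four-parameter logistic model provided the IC50.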
With CC1(C)S[C@@H]2[C@H](NC(=O)[C@H](NC(=O)N3CCN([S+](C)(=O)[O-])C3=O)c3ccccc3)C(=O)N2[C@H]1C(=O)O [MEZLOCILLIN SODIUM MONOHYDRATE] the “IC50 of cell viability” value was over 46 µM. For O=C(OCCN1CCCCC1)C(O)(c1ccccc1)c1ccccc1 [PIPETHANATE HYDROCHLORIDE], the “IC50 of cell viability” value was over 46 µM. For O.O=C(O)[C@H]1[C@H]2C[C@H]3c4[nH]c5ccccc5c4CCN3C[C@@H]2CC[C@@H]1O [Yohimbinic acid monohydrate], the “IC50 of cell viability” value was over 46 µM. For CC(=O)NO [ACETOHYDROXAMIC ACID], the “IC50 of cell viability” value was over 46 µM. O=C(O)C(O)[C@@H](O)[C@H](O)C(=O)CO (stereo in doubt) [D-XYLO-5-HEXULOSONIC ACID, CALCIUM SALT] was tested, and the “IC50 of cell viability” value was over 46 µM. With O.O.OC1=CC2=C(C(=C1)O)C(=O)\C(=C(/O2)C3=CC(=C(O)C=C3)O)O [Quercetine dihydrate] the “IC50 of cell viability” value was over 46 µM. N#Cc1c(N(CC(=O)[O-])CC(=O)[O-])sc(C(=O)[O-])c1CC(=O)[O-].O.O.O.O.O.O.O.[Sr+2].[Sr+2] [STRONTIUM RANELATE] was tested, and the “IC50 of cell viability” value was over 46 µM. For CC1=C(C(=O)OCCN(Cc2ccccc2)c2ccccc2)C(c2cccc([N+](=O)[O-])c2)C(P2(=O)OCC(C)(C)CO2)=C(C)N1 (stereo not given) [Efonidipine], the “IC50 of cell viability” value was over 46 µM. Cc1ncc(CO)c(C=O)c1O [PYRIDOXAL HYDROCHLORIDE] was tested, and the “IC50 of cell viability” value was over 46 µM. CC(C(O)c1ccccc1)N(C)CCOC(c1ccccc1)c1ccccc1 (stereo not given) [DIFETEROL HYDROCHLORIDE] was tested, and the “IC50 of cell viability” value was over 46 µM. With Cc1c(C(N)=O)cc([N+](=O)[O-])cc1[N+](=O)[O-] [DINITOLMIDE] the “IC50 of cell viability” value was over 46 µM. With Cc1c(C(=O)NCCO)[n+](=O)c2ccccc2n1[O-] the “IC50 of cell viability” value was over 46 µM. c1ccc(-c2ccc(C(c3ccccc3)n3ccnc3)cc2)cc1 (stereo not given) [BIFONAZOLE] was tested, and the “IC50 of cell viability” value was over 46 µM. For CCOC(=O)[C@@H](N)CS [L-CYSTEINE ETHYLESTER HYDROCHLORIDE], the “IC50 of cell viability” value was over 46 µM. With CC(C)NC(C)C [Diisopropyl amine] the “IC50 of cell viability” value was over 46 µM. For C[C@@H](N)C(=O)O [D-ALANINE], the “IC50 of cell viability” value was over 46 µM. CC1=C(/C=C/C(C)=C/C=C/C(C)=C/C(=O)Oc2c(C)c(C)c3c(c2C)CC[C@@](C)(CCC[C@H](C)CCC[C@H](C)CCCC(C)C)O3)C(C)(C)CCC1 [TOCORETINATE] was tested, and the “IC50 of cell viability” value was over 46 µM. With CN(C)CCc1ccc(O)cc1 [HORDENINE] the “IC50 of cell viability” value was over 46 µM. In the case of C(=C\c1ccncc1)/c1ccccc1 [4-STYRYLPYRIDINE], the “IC50 of cell viability” value is reported as over 46 µM. With CCOC(=S)SSC(=S)OCC [Dixanthogen] the “IC50 of cell viability” value was over 46 µM. N=C(N)NCCN1CCCCCCC1 [Guanethidine sulfate] was tested, and the “IC50 of cell viability” value was over 46 µM. In the case of CCCC(=O)N1CCCN(c2nc(N)c3cc(OC)c(OC)cc3n2)CC1 [BUNAZOSIN HYDROCHLORIDE], the “IC50 of cell viability” value is reported as over 46 µM. For CCCCCCCCCCCCOS(=O)(=O)[O-] [Sodium dodecyl sulfate], the “IC50 of cell viability” value was over 46 µM. With OCCCc1ccccc1 [3-Phenyl-1-propanol] the “IC50 of cell viability” value was over 46 µM. For NC(Cc1ccc(Oc2cc(I)c(O)c(I)c2)c(I)c1)C(=O)O (stereo not given) [Triiodothyronine, reverse], the “IC50 of cell viability” value was over 46 µM. With NC(=O)n1c(O)c(C(=O)c2cccs2)c2cc(Cl)ccc21 [TENIDAPUM] the “IC50 of cell viability” value was over 46 µM. With Nc1nc(N)nc(-c2cc(Cl)ccc2Cl)n1 [IRSOGLADINE MALEATE] the “IC50 of cell viability” value was over 46 µM. In the case of O=C(O)c1ccccc1S [Thiosalicylic acid], the “IC50 of cell viability” value is reported as over 46 µM. O=C([O-])P(=O)([O-])[O-].[Na+].[Na+].[Na+] [FOSCARNET SODIUM] was tested, and the “IC50 of cell viability” value was over 46 µM. For C[C@]1(O)CC[C@H]2[C@@H]3CCC/4=C/C(=O)CC[C@]4(C)[C@H]3CC[C@]12C [METHYLTESTOSTERONE], the “IC50 of cell viability” value was over 46 µM. With CC1=C(C\C2=N\CCN2)C3=C(S1)C=CC=C3.OC(=O)C(O)=O [Benazoline oxalate] the “IC50 of cell viability” value was over 46 µM. With Cc1cccc(C)c1NC(=O)C1CCCCN1C.Cl (stereo not given) [MEPIVACAINE HYDROCHLORIDE] the “IC50 of cell viability” value was over 46 µM. For O=C(CCC1CCN(Cc2ccccc2)CC1)c1ccc2c(c1)NCCCC2 [ZANAPEZIL FUMARATE], the “IC50 of cell viability” value was over 46 µM. For C[C@@H]1C[C@@H]2[C@@H]3C[C@@H](F)\C4=C\C(=O)\C=C/[C@]4(C)[C@@]3(F)[C@H](O)C[C@@]2(C)[C@@]1(O)C(=O)CO [Flumethasone], the “IC50 of cell viability” value was over 46 µM. For O=C(O)CCc1nc2ccccc2[nH]1 [PROCODAZOLUM], the “IC50 of cell viability” value was over 46 µM. For Cc1cc(O)cc(C)c1Cl [Chloroxylenol], the “IC50 of cell viability” value was over 46 µM. With O=C(O)CCCc1ccccc1 [SODIUM PHENYLBUTYRATE] the “IC50 of cell viability” value was over 46 µM. For C\C1=C\C(=O)C2=C(C=CC=C2)C1=O [MENADIONE], the “IC50 of cell viability” value was over 46 µM. For O=C(O)CCC(=O)OC[C@@H](NC(=O)C(Cl)Cl)[C@H](O)c1ccc([N+](=O)[O-])cc1 [Chloramphenicol succinate sodium salt], the “IC50 of cell viability” value was over 46 µM. For CN1CC(=O)\N=C1\NC(=O)NC2=CC(=CC=C2)Cl [Fenobam], the “IC50 of cell viability” value was over 46 µM. In the case of C=CCc1ccccc1OCC(O)CNC(C)C (stereo not given) [ALPRENOLOL], the “IC50 of cell viability” value is reported as over 46 µM. For N=C1NCCC(C2NC(=O)/C(=C/NC(N)=O)NC(=O)C(CNC(=O)CC(N)CCCN)NC(=O)C(CO)NC(=O)C(N)CNC2=O)N1 (stereo not given) [CAPREOMYCIN SULFATE], the “IC50 of cell viability” value was over 46 µM. In the case of CCCCCCCN(CC)CCCC(O)c1ccc(N[S+](C)(=O)[O-])cc1 (stereo not given) [Ibutilide], the “IC50 of cell viability” value is reported as over 46 µM. For CC(COc1ccccc1)N(CCCl)Cc1ccccc1 (stereo not given) [Fenoxibenzamina], the “IC50 of cell viability” value was over 46 µM. In the case of N[S+](=O)([O-])c1cc(Cl)c(Cl)c([S+](N)(=O)[O-])c1 [Dichlorphenamide], the “IC50 of cell viability” value is reported as over 46 µM. With CNC[C@H](O)[C@H](O)[C@H](O)[C@H](O)CO.Cc1c(Nc2ncccc2C(=O)O)cccc1C(F)(F)F [Flunixin meglumine] the “IC50 of cell viability” value was over 46 µM. In the case of CCCOC(=O)c1ccccc1 [PROPYL BENZOATE], the “IC50 of cell viability” value is reported as over 46 µM. For Cl.CN\1CCC\N=C1COC(=O)C(O)(C2CCCCC2)C3=CC=CC=C3 (stereo not given) [OXYPHENCYCLIMINE HYDROCHLORIDE], the “IC50 of cell viability” value was over 46 µM. In the case of Oc1cc(O)cc(O)c1 [PHLOROGLUCINOL], the “IC50 of cell viability” value is reported as over 46 µM. CN(C)Cc1ccccc1 [N,N-Dimethylbenzylamine] was tested, and the “IC50 of cell viability” value was over 46 µM. CC1(C)[C@@H]2CC[C@]1(C)[C@@H](OC(=O)CSC#N)C2 [isobornyl thiocyanoacetate] was tested, and the “IC50 of cell viability” value was over 46 µM. In the case of CCN[C@@H](C)Cc1cccc(C(F)(F)F)c1 [(+)-Fenfluramine], the “IC50 of cell viability” value is reported as over 46 µM. For NC/1=N/C(=O)N/C=C1F [Flucytosine], the “IC50 of cell viability” value was over 46 µM. In the case of C=C(CC)C(=O)c1ccc(OCC(=O)O)c(Cl)c1Cl [Ethacrynic acid], the “IC50 of cell viability” value is reported as over 46 µM. In the case of OC1\C=C/C2[C@H]3CC4=C5C(=C(O)C=C4)OC1[C@@]25CCN3 (stereo not given in full) [N-Normorphine], the “IC50 of cell viability” value is reported as over 46 µM. O=C(O)COc1nc(Cl)c(Cl)cc1Cl [Triclopyr] was tested, and the “IC50 of cell viability” value was over 46 µM. In the case of CCCCC(=O)N(Cc1ccc(-c2ccccc2-c2nn[nH]n2)cc1)C(C(=O)O)C(C)C (stereo not given) [VALSARTAN], the “IC50 of cell viability” value is reported as over 46 µM. In the case of O=C(Nc1ccc(/C=C/c2ccc(NC(=O)c3cc([S+](=O)([O-])O)c4cccnc4c3O)cc2[S+](=O)([O-])O)c([S+](=O)([O-])O)c1)c1cc([S+](=O)([O-])O)c2cccnc2c1O [Ubistatin A], the “IC50 of cell viability” value is reported as over 46 µM. For CN1C(=O)NC(=O)C(C)(C2=CCCCC2)C1=O (stereo not given) [HEXOBARBITAL], the “IC50 of cell viability” value was over 46 µM. With COc1cc(C[C@H](C)N)c(OC)cc1Br [(+)-4-Bromo-2,5-dimethoxyamphetamine] the “IC50 of cell viability” value was over 46 µM. COc1cc(O)cc(O)c1 [Flamenol] was tested, and the “IC50 of cell viability” value was over 46 µM. In the case of CCCNC(C)(C)COC(=O)c1ccccc1 [Meprylcaine hydrochloride], the “IC50 of cell viability” value is reported as over 46 µM. In the case of NC(=O)c1cnccn1 [Pyrazinamide], the “IC50 of cell viability” value is reported as over 46 µM. CNC(=O)OCc1cccc(COC(=O)NC)n1 [PYRIDINOL CARBAMATE] was tested, and the “IC50 of cell viability” value was over 46 µM. In the case of OCc1ccccn1 [Piconol], the “IC50 of cell viability” value is reported as over 46 µM. With COc1ccc([S+](=O)([O-])Nc2nnc(CC(C)C)s2)cc1 [Glisobuzol] the “IC50 of cell viability” value was over 46 µM. In the case of O=C(O)CN(CCN(CC(=O)O)CC(=O)O)CC(=O)O [EDETATE CALCIUM DISODIUM], the “IC50 of cell viability” value is reported as over 46 µM. CC(=O)OCC[N+](C)(C)C [Acetylcholine chloride] was tested, and the “IC50 of cell viability” value was over 46 µM. In the case of CC(C)CC(=O)N[C@H](C(=O)N[C@H](C(=O)N[C@@H](CC(C)C)[C@@H](O)CC(=O)N[C@@H](C)C(=O)N[C@@H](CC(C)C)[C@@H](O)CC(=O)O)C(C)C)C(C)C [PEPSTATINUM], the “IC50 of cell viability” value is reported as over 46 µM. CCOC(=O)c1ncn2c1CN(C)C(=O)c1cc(F)ccc1-2 [FLUMAZENIL] was tested, and the “IC50 of cell viability” value was over 46 µM. Oc1ccc(Cl)c2c1CCC2 [Chlorindanol] was tested, and the “IC50 of cell viability” value was over 46 µM. In the case of CCC(=O)[C@@]1(C)[C@H](C)C[C@@H]2[C@@H]3CC\C4=C\C(=O)\C=C/[C@@]4(C)[C@H]3[C@H](O)C[C@@]12C [Rimexolone], the “IC50 of cell viability” value is reported as over 46 µM. In the case of C=C[C@]1(C)C[C@@H](OC(=O)CSCCN(CC)CC)[C@]2(C)C(C)CC[C@]3(CCC(=O)[C@H]32)[C@@H](C)[C@@H]1O (stereo not given in full) [TIAMULIN], the “IC50 of cell viability” value is reported as over 46 µM. O=C(O)Cc1cc(I)c(Oc2ccc(O)c(I)c2)c(I)c1 [Tiratricol, 3,3',5-triiodothyroacetic acid] was tested, and the “IC50 of cell viability” value was over 46 µM. In the case of CC(C)(C)C(=O)OCOC(=O)C1N2C(=O)CC2[S+](=O)([O-])C1(C)C (stereo not given) [Pivoxil Sulbactam], the “IC50 of cell viability” value is reported as over 46 µM.
